Test results reported in US8541395B2 (priority 2009, dated 2013).

How the values were obtained:
HCN2 = target: T1, HCN2 (Homo sapiens, UniProt Q9UL51); assay: Patch clamp assay, ion channel inhibition; settings: read-out: Mean % inhibition (positive control)
T1 sequence (Q9UL51 1-889): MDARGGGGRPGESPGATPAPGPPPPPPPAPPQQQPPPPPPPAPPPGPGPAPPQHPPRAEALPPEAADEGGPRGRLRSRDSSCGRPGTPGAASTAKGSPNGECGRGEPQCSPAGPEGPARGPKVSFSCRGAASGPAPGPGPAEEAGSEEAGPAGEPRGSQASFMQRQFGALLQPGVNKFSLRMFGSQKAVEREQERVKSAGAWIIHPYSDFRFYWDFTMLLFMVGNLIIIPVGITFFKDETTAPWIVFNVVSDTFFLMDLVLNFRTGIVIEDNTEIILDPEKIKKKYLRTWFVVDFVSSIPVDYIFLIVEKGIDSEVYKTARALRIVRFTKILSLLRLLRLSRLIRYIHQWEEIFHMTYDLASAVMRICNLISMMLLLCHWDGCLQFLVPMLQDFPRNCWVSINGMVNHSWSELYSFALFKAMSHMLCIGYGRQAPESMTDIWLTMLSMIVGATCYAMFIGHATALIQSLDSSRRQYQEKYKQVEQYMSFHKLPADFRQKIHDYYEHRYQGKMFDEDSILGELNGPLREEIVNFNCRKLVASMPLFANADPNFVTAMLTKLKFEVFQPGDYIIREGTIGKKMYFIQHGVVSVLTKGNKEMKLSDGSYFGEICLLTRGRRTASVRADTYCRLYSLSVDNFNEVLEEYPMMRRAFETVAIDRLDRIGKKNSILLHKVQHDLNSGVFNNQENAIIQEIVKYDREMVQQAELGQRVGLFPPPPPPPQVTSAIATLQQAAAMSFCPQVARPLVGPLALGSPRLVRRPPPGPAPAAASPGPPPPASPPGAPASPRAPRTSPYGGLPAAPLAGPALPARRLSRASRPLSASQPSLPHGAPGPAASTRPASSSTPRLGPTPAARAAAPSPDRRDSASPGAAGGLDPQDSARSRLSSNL
Experimental: (§1) The studies were conducted according to the conventional procedures.
(§2) The exposure duration of each channel was 5 minutes. […] Any left current after exposure to this dose was digitally subtracted to eliminate the contribution of any endogenous current.

HCN4 = target: T2, HCN4 (Homo sapiens, UniProt Q9Y3Q4); assay: Patch clamp assay, ion channel inhibition; settings: read-out: Mean % inhibition (positive control)
T2 sequence (Q9Y3Q4 1-1203): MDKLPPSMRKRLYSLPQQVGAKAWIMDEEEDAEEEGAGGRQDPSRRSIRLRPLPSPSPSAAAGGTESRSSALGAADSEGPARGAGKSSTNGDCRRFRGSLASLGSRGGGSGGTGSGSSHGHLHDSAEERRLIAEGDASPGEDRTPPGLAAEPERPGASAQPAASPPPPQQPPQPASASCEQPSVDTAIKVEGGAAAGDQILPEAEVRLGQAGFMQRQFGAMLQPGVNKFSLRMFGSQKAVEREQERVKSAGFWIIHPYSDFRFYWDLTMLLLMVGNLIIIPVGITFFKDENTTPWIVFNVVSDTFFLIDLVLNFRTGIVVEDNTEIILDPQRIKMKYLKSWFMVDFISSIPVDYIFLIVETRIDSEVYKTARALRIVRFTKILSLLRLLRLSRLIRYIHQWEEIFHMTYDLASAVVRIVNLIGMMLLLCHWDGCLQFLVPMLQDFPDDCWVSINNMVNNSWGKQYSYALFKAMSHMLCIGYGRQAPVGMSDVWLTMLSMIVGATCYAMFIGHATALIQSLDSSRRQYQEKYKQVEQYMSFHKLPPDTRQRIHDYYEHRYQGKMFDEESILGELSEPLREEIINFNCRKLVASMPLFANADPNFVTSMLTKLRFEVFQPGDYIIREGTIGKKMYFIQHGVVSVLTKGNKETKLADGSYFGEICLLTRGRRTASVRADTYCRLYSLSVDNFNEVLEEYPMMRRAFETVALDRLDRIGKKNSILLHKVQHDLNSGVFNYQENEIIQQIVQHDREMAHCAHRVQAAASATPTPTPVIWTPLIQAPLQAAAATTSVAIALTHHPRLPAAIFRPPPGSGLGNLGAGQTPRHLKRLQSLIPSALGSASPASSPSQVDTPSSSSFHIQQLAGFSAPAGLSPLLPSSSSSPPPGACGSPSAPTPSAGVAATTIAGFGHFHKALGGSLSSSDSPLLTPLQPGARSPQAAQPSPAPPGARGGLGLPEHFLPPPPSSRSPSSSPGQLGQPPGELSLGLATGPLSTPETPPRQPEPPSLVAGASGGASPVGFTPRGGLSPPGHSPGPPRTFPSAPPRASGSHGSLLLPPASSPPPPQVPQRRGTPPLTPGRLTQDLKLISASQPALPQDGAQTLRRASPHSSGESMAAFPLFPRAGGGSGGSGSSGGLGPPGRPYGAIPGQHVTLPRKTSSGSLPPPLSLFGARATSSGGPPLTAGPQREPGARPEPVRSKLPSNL
Experimental: as §1, §2

**Q.** Which results are given for `COc1ccc(CCN(C)CCCN2CCc3cc(OC)c(OC)cc3CC2=O)cc1OC` [Zatebradine]?
**A.** inhibition at 100 µM (HCN2): 96.1%; inhibition at 10 µM (HCN4): 88.3%
